Test results as given in patent US6589520B1, “Treatment of psoriasis, allergies and auto-immune disorders of the skin with cis-6-hexadecenoic acid” (Beiersdorf AG, priority 1997, dated 2003).
Where a name gives a salt, the structure may show the parent alone.

What was measured:
[1] = test system: macrophage; experiment: macrophage differentiation test; format: cell-based
From the text: This is of importance in the prophylaxis of processes such as, for example, psoriasis or atopy or allergies or auto-immune disorders.

[2] = solubility in water; format: physicochemical
Procedure: If salts are sparingly soluble in water, they can be administered in the form of suspensions. […] For example, salts are preferably injected intravenously or intramuscularly in the form of an aqueous solution, such as physiological saline solution. The ampoules contain, for example, 2.5 mg of the fatty acid salt per 5 ml of solution. Ampoules containing, for example, 45 mg of fatty acid salt per milliliter of solution can also be prepared.

solubility in water [2]	Structure (SMILES)	anti-inflammatory macrophage-stimulating potency [1]
–	CCCCCCCCC/C=C\CCCCC(=O)O [cis-6-hexadecenoic acid]	showed an anti-inflammatory macrophage-stimulating potency
particularly good solubility in water	CCCCCCC/C=C\CCCCCCCC(=O)O [sodium salt of cis-9-heptadecenoic acid, cis-9-heptadecenoic acid]	–
